Where two headings read alike, the source gives them in different places.

In experiment [1] the target is human CB2 receptor (hCB2) (Homo sapiens, UniProt P34972). Nature of the experiment: cAMP assay at human CB2 receptor. Format: cell-based. As to conditions: hCB2R, maximum measurable range 30 μM. The procedure: (§1) TR-FRET was measured using a 330-380 nm excitation filter, 615 nm and 665 nm emission filters, dichroic minor 380 nm and Z=10 mm. cAMP concentrations in each well were back-calculated from a cAMP standard curve run concurrently during each assay. Each plate contained 16 wells of forskolin stimulated cells and 16 wells of forskolin plus 1 μM CP55,940-treated cells. Concentrations of cAMP were expressed as a percent of the difference of these two groups of wells.

The target of experiment [2] is human CB1 receptor (hCB1) (Homo sapiens, UniProt P21554). The experiment can be described thus: cAMP assay at human CB1 receptor. Format: cell-based. As to conditions: hCB1R; maximum measurable range 30 μM; read-out: EC50 (Potency at Human CB1 determined by cAMP Assay). On the procedure: The ability of each of the compounds to act as agonists or inverse agonists at human CB2 and CB1 receptors (hCB2, hCB1, respectively) and at the rat CB2 receptor (rCB2) was determined by measuring changes in intracellular cyclic AMP (cAMP) levels as described in U.S. Pat. No. 7,517,874.
as §1, with “wells. Concentration-response data including EC50 (the concentration of compound producing 50% of the maximal response) and intrinsic activity (the percent maximal activation compared to full activation by CP55, 940) were determined using a four-parameter non-linear regression algorithm (CambridgeSoft Bioassay).” for “wells.”

Where [3] appears, read: read-out: EC50 (Potency at Human CB2 determined by cAMP Assay).
Where [4] appears, read: EC50 (Potency at Human CB2 determined by cAMP Assay).

Chain of human CB2 receptor (hCB2) (P34972 whole entry): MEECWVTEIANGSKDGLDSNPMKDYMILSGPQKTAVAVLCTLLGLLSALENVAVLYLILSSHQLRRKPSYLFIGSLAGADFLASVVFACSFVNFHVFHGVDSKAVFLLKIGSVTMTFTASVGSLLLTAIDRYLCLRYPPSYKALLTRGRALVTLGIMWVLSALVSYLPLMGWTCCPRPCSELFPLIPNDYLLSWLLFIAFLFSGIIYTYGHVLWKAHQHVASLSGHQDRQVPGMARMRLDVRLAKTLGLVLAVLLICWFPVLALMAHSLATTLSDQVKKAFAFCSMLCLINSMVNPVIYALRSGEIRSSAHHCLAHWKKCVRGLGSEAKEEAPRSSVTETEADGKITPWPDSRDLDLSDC
Chain of human CB1 receptor (hCB1) (P21554 whole entry): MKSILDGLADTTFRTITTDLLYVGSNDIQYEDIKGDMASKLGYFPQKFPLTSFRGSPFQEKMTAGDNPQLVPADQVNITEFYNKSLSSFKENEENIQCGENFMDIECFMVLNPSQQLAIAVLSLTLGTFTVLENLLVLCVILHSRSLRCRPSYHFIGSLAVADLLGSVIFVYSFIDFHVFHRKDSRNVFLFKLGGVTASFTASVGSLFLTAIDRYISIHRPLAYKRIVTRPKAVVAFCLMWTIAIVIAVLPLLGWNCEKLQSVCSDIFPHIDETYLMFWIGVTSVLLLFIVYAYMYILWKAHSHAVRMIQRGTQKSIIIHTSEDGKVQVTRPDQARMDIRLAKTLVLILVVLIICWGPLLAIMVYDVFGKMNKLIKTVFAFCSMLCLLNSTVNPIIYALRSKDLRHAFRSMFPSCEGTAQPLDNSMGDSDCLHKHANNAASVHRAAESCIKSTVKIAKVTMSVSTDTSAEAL

As to `CNC(=O)[C@@H](NC(=O)n1nc(-c2ccc(C(F)(F)F)cc2F)c2c1CCN(C)C2)C(C)(C)C` [Compound 43, (S)—N-(3,3-dimethyl-1-(methylamino)-1-oxobutan-2-yl)-3-(2-fluoro-4-(trifluoromethyl)phenyl)-5-methyl-4,5,6,7-tetrahydro-1H-pyrazolo[4,3-c]pyridine-1-carboxamide], the EC50 was > 1000 nM in experiment [1] (setting [3]) and < 1000 nM in experiment [2].

For `CC(C)(C)c1csc(NC(=O)n2nc(-c3ccc(F)c(F)c3)c3c2CCOC3)n1` [Compound 56, N-(4-tert-butylthiazol-2-yl)-3-(3,4-difluorophenyl)-6,7-dihydropyrano[4,3-c]pyrazole-1(4H)-carboxamide], the EC50 in experiment [1] (setting [3]) and in experiment [2] was < 1000 nM throughout.

On to `CCOC(=O)CN1CCCc2c1c(-c1ccc(F)c(F)c1)nn2C(=O)N[C@H](C(=O)NC)C(C)(C)C` [Compound 100, (S)-ethyl 2-(3-(3,4-difluorophenyl)-1-(3,3-dimethyl-1-(methylamino)-1-oxobutan-2-ylcarbamoyl)-6,7-dihydro-1H-pyrazolo[4,3-b]pyridin-4(5H)-yl)acetate], for which the EC50 in experiment [1] (setting [4]) and in experiment [2] was < 1000 nM in each case.

For `CNC(=O)[C@@H](NC(=O)n1nc(-c2ccc(F)c(F)c2)c2c1CCCCN2C)C(C)(C)C` [Compound 69, (S)-3-(3,4-difluorophenyl)-N-(3,3-dimethyl-1-(methylamino)-1-oxobutan-2-yl)-4-methyl-5,6,7,8-tetrahydropyrazolo[4,3-b]azepine-1(4H)-carboxamide], the EC50 in experiment [1] (setting [4]) and in experiment [2] was < 1000 nM each time.

Consider `CN1CCc2c(c(-c3cc(F)c(F)cc3F)nn2C(=O)N[C@H](C(=O)NCCCO)C(C)(C)C)C1` [Compound 80, (S)—N-(1-(3-hydroxypropylamino)-3,3-dimethyl-1-oxobutan-2-yl)-5-methyl-3-(2,4,5-trifluorophenyl)-4,5,6,7-tetrahydro-1H-pyrazolo[4,3-c]pyridine-1-carboxamide], for which the figures for the EC50 in experiment [1] (setting [3]) and in experiment [2] were > 1000 nM and < 1000 nM, respectively.

For `CNC(=O)[C@@H](NC(=O)n1nc(-c2ccc(F)c(F)c2)c2c1CCC(O)C2)C(C)(C)C` (mixture of isomers) [Compound 67, 3-(3,4-difluorophenyl)-N—((S)-3,3-dimethyl-1-(methylamino)-1-oxobutan-2-yl)-5-hydroxy-4,5,6,7-tetrahydro-1H-indazole-1-carboxamide], the EC50 in experiment [1] (setting [4]) and in experiment [2] was < 1000 nM in each case.

Regarding `CC(C)C[C@H](NC(=O)n1nc(-c2ccc(F)c(F)c2)c2c1CCN(C)C2)C(N)=O` [Compound 49, (S)—N-(1-amino-4-methyl-1-oxopentan-2-yl)-3-(3,4-difluorophenyl)-5-methyl-4,5,6,7-tetrahydro-1H-pyrazolo[4,3-c]pyridine-1-carboxamide], the EC50 in experiment [1] (setting [4]) and in experiment [2] was < 1000 nM in each case.

Regarding `CN1CCc2c(c(-c3cc(F)c(F)cc3F)nn2C(=O)N[C@H](C(=O)N2CCC[C@@H]2C(N)=O)C(C)(C)C)C1` [Compound 75, N—((S)-1-((R)-2-carbamoylpyrrolidin-1-yl)-3,3-dimethyl-1-oxobutan-2-yl)-5-methyl-3-(2,4,5-trifluorophenyl)-4,5,6,7-tetrahydro-1H-pyrazolo[4,3-c]pyridine-1-carboxamide], the figures for the EC50 in experiment [1] (setting [3]) and in experiment [2] were > 1000 nM and < 1000 nM, respectively.

Consider `CN1CCc2c(c(-c3cc(F)c(F)cc3F)nn2C(=O)N[C@H](C(=O)NCCO)C(C)(C)C)C1` [Compound 40, (S)—N-(1-(2-hydroxyethylamino)-3,3-dimethyl-1-oxobutan-2-yl)-5-methyl-3-(2,4,5-trifluorophenyl)-4,5,6,7-tetrahydro-1H-pyrazolo[4,3-c]pyridine-1-carboxamide], for which the EC50 in experiment [1] (setting [4]) and in experiment [2] was < 1000 nM each time.

As for `CNC(=O)[C@@H](NC(=O)n1nc(-c2cc(F)c(F)cc2F)c2c1CCNC2)C(C)(C)C` [Compound 84, (S)—N-(3,3-dimethyl-1-(methylamino)-1-oxobutan-2-yl)-3-(2,4,5-trifluorophenyl)-4,5,6,7-tetrahydro-1H-pyrazolo[4,3-c]pyridine-1-carboxamide], the EC50 in experiment [1] (setting [4]) and in experiment [2] was < 1000 nM throughout.

In the case of `COC(=O)[C@@H](NC(=O)n1nc(-c2cc(F)c(F)cc2F)c2c1CCOC2)C(C)(C)C` [Compound 34, (S)-methyl 3,3-dimethyl-2-(3-(2,4,5-trifluorophenyl)-1,4,6,7-tetrahydropyrano[4,3-c]pyrazole-1-carboxamido)butanoate], the EC50 in experiment [1] (setting [4]) and in experiment [2] was < 1000 nM throughout.

As to `CNC(=O)[C@@H](NC(=O)n1nc(-c2ccc(F)c(F)c2)c2c1CCN(C)C2)C(C)(C)C` [Compound 42, (S)-3-(3,4-difluorophenyl)-N-(3,3-dimethyl-1-(methylamino)-1-oxobutan-2-yl)-5-methyl-4,5,6,7-tetrahydro-1H-pyrazolo[4,3-c]pyridine-1-carboxamide], the EC50 in experiment [1] (setting [4]) and in experiment [2] was < 1000 nM in each case.

In the case of `CC(C)C[C@H](NC(=O)[C@@H](NC(=O)n1nc(-c2cc(F)c(F)cc2F)c2c1CCN(C)C2)C(C)(C)C)C(N)=O` [Compound 72, N—((S)-1-((S)-1-amino-4-methyl-1-oxopentan-2-ylamino)-3,3-dimethyl-1-oxobutan-2-yl)-5-methyl-3-(2,4,5-trifluorophenyl)-4,5,6,7-tetrahydro-1H-pyrazolo[4,3-c]pyridine-1-carboxamide], the EC50 in experiment [1] (setting [3]) and in experiment [2] was > 1000 nM throughout.

In the case of `CC(C)(C)[C@H](NC(=O)n1nc(-c2ccc(F)c(F)c2)c2c1CCOC2)C(=O)N1CC[C@H](O)C1` [Compound 60, 3-(3,4-difluorophenyl)-N—((S)-1-((S)-3-hydroxypyrrolidin-1-yl)-3,3-dimethyl-1-oxobutan-2-yl)-6,7-dihydropyrano[4,3-c]pyrazole-1(4H)-carboxamide], the 50% effective concentration (EC50) in experiment [1] (setting [4]) and in experiment [2] was < 1000 nM each time.

Take `CN1CCc2c(c(-c3cc(F)c(F)cc3F)nn2C(=O)N[C@H](C(=O)O)C(C)(C)C)C1` [Compound 71, (S)-3,3-dimethyl-2-(5-methyl-3-(2,4,5-trifluorophenyl)-4,5,6,7-tetrahydro-1H-pyrazolo[4,3-c]pyridine-1-carboxamido)butanoic acid]: the EC50 in experiment [1] (setting [3]) and in experiment [2] was > 30000 nM each time.

For the compound `CN1CCc2c(c(-c3ccc(F)c(F)c3)nn2C(=O)N[C@@]23C[C@@H]4C[C@@H](C[C@@](O)(C4)C2)C3)C1` [Compound 55], the EC50 in experiment [1] (setting [4]) and in experiment [2] was < 1000 nM in each case.

For the compound `CC(C)(C)c1cc(NC(=O)n2nc(-c3ccc(F)c(F)c3)c3c2CCOC3)no1` [Compound 57], the EC50 in experiment [1] (setting [3]) is < 1000 nM; in experiment [2] it was > 1000 nM.

`CN1CCN(C(=O)[C@@H](NC(=O)n2nc(-c3cc(F)c(F)cc3F)c3c2CCOC3)C(C)(C)C)CC1` [Compound 32, (S)—N-(3,3-dimethyl-1-(4-methylpiperazin-1-yl)-1-oxobutan-2-yl)-3-(2,4,5-trifluorophenyl)-6,7-dihydropyrano[4,3-c]pyrazole-1(4H)-carboxamide]: the EC50 in experiment [1] (setting [4]) and in experiment [2] was < 1000 nM each time.

Turning to `CN1CCc2c(c(-c3ccc(F)c(F)c3)nn2C(=O)N[C@H](CO)C(C)(C)C)C1` [Compound 48, (S)-3-(3,4-difluorophenyl)-N-(1-hydroxy-3,3-dimethylbutan-2-yl)-5-methyl-4,5,6,7-tetrahydro-1H-pyrazolo[4,3-c]pyridine-1-carboxamide], the EC50 in experiment [1] (setting [4]) is < 1000 nM; in experiment [2] it was > 1000 nM.

Turning to `CN1CCc2c(c(-c3cc(F)c(F)cc3F)nn2C(=O)N[C@H](C(=O)N2CCC[C@H]2C(N)=O)C(C)(C)C)C1` [Compound 74, N—((S)-1-((S)-2-carbamoylpyrrolidin-1-yl)-3,3-dimethyl-1-oxobutan-2-yl)-5-methyl-3-(2,4,5-trifluorophenyl)-4,5,6,7-tetrahydro-1H-pyrazolo[4,3-c]pyridine-1-carboxamide], the EC50 in experiment [1] (setting [3]) is > 1000 nM; in experiment [2] it was < 1000 nM.

Regarding `CNC(=O)[C@@H](NC(=O)n1nc(-c2cc(F)c(F)cc2F)c2c1CCCN2C)C(C)(C)C` [Compound 39, (S)—N-(3,3-dimethyl-1-(methylamino)-1-oxobutan-2-yl)-4-methyl-3-(2,4,5-trifluorophenyl)-4,5,6,7-tetrahydro-1H-pyrazolo[4,3-b]pyridine-1-carboxamide], the EC50 in experiment [1] (setting [4]) and in experiment [2] was < 1000 nM each time.

Turning to `CNC(=O)[C@@H]1CCCN1C(=O)[C@@H](NC(=O)n1nc(-c2cc(F)c(F)cc2F)c2c1CCN(C)C2)C(C)(C)C` [Compound 76, N—((S)-3,3-dimethyl-1-((S)-2-(methyl-carbamoyl)pyrrolidin-1-yl)-1-oxobutan-2-yl)-5-methyl-3-(2,4,5-trifluorophenyl)-4,5,6,7-tetrahydro-1H-pyrazolo[4,3-c]pyridine-1-carboxamide], the results for the EC50 in experiment [1] (setting [3]) and in experiment [2] were > 1000 nM and < 1000 nM, respectively.

The values above are taken from patent US7741350B1 (Cara Therapeutics, Inc., priority 2009, dated 2010).
